Results from ChEMBL document CHEMBL1152560, “Substituted 2-arylbenzothiazoles as kinase inhibitors: hit-to-lead optimization” (Bioorg Med Chem, 2009).

What was measured:
[1] = molecular target: Vascular endothelial growth factor receptor 2 (Homo sapiens, UniProt P35968); experiment: Residual activity of VEGFR2 at 10 uM by microplate scintillation counting
[2] = molecular target: Death-associated protein kinase 1 (Homo sapiens) (UniProt P53355); experiment: Residual activity of DAPK1 at 10 uM by microplate scintillation counting
[3] = molecular target: NT-3 growth factor receptor (Homo sapiens) (UniProt Q16288); experiment: Residual activity of TRK-C at 0.1 uM by microplate scintillation counting
NT-3 growth factor receptor (Homo sapiens), sequence (Q16288 32-839 limits assumed): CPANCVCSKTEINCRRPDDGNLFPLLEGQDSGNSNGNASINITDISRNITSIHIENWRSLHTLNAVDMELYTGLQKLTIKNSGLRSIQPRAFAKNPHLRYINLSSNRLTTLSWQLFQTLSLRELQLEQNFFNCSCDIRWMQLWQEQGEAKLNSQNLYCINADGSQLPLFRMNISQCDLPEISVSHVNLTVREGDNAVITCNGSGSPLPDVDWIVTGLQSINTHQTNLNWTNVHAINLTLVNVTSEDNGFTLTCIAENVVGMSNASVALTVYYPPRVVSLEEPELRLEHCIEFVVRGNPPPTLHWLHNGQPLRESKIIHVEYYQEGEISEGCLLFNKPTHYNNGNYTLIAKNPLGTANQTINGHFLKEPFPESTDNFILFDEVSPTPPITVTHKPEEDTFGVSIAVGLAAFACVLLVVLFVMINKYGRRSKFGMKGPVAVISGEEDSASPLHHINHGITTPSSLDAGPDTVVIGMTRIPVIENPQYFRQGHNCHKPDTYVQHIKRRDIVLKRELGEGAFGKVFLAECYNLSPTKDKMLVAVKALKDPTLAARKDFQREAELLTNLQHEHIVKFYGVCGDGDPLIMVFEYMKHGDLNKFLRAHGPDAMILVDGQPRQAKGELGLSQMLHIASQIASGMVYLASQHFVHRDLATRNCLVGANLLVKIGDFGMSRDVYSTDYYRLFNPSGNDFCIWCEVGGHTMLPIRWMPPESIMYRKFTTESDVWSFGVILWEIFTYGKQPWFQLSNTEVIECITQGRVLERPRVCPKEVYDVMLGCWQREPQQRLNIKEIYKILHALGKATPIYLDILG

[4] = molecular target: Serine/threonine-protein kinase N1 (Homo sapiens) (UniProt Q16512); experiment: Residual activity of PRK1 at 0.1 uM by microplate scintillation counting
Serine/threonine-protein kinase N1 (Homo sapiens), sequence (Q16512 2-942 limits assumed): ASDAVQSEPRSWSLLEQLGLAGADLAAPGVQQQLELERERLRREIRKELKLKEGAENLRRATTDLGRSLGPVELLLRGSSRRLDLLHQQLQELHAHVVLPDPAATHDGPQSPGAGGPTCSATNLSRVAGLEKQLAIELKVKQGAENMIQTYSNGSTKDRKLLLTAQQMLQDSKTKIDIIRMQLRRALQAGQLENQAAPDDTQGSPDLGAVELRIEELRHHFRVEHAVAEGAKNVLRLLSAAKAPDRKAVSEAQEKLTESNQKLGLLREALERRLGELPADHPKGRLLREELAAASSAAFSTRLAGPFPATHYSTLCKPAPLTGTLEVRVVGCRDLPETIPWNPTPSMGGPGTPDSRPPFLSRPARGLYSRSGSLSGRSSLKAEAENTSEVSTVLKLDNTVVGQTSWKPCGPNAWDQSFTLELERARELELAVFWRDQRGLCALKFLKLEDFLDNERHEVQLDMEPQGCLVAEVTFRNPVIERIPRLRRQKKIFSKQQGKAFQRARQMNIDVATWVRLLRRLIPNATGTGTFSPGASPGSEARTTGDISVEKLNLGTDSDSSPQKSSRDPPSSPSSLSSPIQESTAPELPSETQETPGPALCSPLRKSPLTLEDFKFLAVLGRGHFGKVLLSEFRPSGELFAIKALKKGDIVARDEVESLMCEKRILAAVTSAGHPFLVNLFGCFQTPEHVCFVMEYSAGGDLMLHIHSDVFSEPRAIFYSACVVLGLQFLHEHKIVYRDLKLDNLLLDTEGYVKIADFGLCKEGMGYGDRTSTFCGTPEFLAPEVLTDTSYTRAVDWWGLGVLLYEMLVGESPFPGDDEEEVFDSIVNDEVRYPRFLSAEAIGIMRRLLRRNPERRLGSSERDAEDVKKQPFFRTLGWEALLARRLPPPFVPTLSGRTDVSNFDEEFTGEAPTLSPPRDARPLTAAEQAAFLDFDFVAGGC

[5] = molecular target: Platelet-derived growth factor receptor beta (Homo sapiens, UniProt P09619); experiment: Residual activity of PDGFRbeta at 10 uM by microplate scintillation counting
Platelet-derived growth factor receptor beta, sequence (P09619 whole entry): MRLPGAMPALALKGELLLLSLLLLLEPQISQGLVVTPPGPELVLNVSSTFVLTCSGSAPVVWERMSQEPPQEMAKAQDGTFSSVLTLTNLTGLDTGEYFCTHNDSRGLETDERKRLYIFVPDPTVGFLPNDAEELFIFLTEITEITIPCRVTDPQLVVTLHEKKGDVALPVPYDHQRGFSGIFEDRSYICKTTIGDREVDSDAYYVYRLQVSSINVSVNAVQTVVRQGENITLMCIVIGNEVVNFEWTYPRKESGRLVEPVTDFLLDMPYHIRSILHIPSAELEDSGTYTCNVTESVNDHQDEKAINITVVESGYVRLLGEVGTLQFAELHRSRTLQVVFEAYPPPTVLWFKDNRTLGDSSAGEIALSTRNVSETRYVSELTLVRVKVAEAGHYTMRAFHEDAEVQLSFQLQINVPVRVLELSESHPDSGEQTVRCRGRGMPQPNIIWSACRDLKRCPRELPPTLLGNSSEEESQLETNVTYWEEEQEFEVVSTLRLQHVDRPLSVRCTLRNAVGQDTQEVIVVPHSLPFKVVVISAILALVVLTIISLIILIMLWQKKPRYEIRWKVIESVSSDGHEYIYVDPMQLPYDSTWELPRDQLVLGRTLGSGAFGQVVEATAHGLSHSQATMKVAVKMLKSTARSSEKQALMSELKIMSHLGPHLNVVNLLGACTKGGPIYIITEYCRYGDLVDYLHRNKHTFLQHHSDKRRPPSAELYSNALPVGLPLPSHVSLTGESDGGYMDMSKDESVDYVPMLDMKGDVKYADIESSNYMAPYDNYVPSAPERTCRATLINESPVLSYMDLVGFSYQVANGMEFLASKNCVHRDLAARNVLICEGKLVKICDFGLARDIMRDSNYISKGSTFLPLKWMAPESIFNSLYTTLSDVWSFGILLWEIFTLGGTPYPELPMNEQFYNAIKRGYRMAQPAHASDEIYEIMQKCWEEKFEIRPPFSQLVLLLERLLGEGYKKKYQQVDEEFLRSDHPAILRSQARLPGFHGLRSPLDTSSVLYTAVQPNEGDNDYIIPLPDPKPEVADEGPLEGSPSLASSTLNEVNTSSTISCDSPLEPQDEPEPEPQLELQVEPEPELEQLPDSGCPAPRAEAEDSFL

[6] = molecular target: Eukaryotic translation initiation factor 2-alpha kinase 1 (Homo sapiens) (UniProt Q9BQI3); experiment: Residual activity of HRI at 0.1 uM by microplate scintillation counting
Eukaryotic translation initiation factor 2-alpha kinase 1 (Homo sapiens), sequence (Q9BQI3 whole entry): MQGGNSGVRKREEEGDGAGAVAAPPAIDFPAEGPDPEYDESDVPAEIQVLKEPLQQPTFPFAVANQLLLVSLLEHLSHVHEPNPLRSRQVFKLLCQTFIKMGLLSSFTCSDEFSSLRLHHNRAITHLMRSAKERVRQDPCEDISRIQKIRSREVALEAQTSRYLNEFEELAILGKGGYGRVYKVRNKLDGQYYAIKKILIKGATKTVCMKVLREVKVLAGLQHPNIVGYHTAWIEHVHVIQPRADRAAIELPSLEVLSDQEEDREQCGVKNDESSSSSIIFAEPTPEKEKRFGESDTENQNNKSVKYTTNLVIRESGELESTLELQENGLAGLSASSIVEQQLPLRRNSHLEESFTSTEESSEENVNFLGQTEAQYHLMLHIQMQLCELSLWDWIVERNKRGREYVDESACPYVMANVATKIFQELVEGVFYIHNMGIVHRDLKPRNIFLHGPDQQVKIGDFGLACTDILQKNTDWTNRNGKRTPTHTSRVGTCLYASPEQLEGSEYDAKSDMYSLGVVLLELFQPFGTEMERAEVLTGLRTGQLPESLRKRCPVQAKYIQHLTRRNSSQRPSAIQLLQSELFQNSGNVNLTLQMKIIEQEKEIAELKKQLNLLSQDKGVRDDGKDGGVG

[7] = molecular target: Serine/threonine-protein kinase PAK 3 (Homo sapiens) (UniProt O75914); experiment: Residual activity of PAK3 at 1 uM by microplate scintillation counting
[8] = molecular target: MAP kinase-activated protein kinase 3 (Homo sapiens) (UniProt Q16644); experiment: Residual activity of MAPKAPK3 at 1 uM by microplate scintillation counting
[9] = molecular target: T1, cAMP-dependent protein kinase catalytic subunit PRKX (Homo sapiens) (UniProt P51817); experiment: Residual activity of PRKX at 10 uM by microplate scintillation counting
T1 sequence (whole entry): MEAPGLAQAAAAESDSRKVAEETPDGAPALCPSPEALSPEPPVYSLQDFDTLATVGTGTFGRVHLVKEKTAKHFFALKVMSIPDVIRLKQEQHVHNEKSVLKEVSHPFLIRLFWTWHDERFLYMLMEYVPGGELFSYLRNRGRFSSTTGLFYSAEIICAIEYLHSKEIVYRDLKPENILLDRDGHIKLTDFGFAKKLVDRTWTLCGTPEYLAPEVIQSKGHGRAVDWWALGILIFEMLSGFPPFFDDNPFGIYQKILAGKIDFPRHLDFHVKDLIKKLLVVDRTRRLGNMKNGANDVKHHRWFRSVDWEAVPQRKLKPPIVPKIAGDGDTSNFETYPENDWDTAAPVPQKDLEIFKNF

[10] = molecular target: T2, Dual specificity protein kinase TTK (Homo sapiens) (UniProt P33981); experiment: Residual activity of TTK at 1 uM by microplate scintillation counting
T2 sequence (whole entry): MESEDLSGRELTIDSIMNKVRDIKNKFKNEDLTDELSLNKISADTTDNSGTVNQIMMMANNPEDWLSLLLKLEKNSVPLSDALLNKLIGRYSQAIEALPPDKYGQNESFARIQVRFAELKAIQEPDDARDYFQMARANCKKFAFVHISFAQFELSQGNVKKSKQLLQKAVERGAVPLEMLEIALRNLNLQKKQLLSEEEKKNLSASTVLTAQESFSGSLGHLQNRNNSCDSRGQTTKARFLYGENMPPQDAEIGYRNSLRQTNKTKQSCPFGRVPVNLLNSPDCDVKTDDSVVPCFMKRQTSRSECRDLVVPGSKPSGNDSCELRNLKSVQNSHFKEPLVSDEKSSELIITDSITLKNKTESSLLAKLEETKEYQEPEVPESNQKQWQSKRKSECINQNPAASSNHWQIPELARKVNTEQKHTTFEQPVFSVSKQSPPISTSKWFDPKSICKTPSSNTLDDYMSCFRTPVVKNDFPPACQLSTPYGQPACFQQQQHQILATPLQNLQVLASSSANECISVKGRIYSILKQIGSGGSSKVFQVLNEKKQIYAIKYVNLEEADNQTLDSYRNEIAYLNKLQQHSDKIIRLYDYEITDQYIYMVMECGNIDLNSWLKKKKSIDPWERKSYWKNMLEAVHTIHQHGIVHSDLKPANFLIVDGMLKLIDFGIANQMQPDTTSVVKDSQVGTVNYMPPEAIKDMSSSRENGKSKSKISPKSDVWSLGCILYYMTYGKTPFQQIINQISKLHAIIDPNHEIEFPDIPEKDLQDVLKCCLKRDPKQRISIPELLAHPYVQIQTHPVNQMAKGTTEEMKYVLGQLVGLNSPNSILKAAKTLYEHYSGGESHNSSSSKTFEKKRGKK

[11] = molecular target: SRSF protein kinase 1 (Homo sapiens) (UniProt Q96SB4); experiment: Residual activity of SRPK1 at 1 uM by microplate scintillation counting
SRSF protein kinase 1 (Homo sapiens), sequence (Q96SB4 whole entry): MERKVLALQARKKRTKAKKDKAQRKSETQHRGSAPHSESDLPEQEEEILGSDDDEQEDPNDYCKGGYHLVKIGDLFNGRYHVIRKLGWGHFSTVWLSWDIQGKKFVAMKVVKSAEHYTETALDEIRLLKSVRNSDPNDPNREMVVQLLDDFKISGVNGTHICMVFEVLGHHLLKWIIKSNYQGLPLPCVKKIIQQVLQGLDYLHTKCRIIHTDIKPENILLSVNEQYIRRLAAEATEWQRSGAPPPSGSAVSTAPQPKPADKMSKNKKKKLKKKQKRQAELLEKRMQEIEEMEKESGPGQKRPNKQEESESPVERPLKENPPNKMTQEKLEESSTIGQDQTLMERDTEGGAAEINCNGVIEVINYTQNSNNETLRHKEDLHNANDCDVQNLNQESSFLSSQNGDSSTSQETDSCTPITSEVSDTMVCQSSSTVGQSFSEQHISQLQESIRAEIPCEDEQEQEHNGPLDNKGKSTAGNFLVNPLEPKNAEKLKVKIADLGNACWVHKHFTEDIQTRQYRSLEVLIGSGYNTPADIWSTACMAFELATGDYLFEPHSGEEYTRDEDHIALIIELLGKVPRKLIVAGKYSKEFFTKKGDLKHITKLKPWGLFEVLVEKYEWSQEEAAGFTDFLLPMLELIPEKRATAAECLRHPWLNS

[12] = molecular target: Serine/threonine-protein kinase MARK2 (Homo sapiens) (UniProt Q7KZI7); experiment: Residual activity of MARK2 at 10 uM by microplate scintillation counting
Serine/threonine-protein kinase MARK2 (Homo sapiens), sequence (Q7KZI7 whole entry): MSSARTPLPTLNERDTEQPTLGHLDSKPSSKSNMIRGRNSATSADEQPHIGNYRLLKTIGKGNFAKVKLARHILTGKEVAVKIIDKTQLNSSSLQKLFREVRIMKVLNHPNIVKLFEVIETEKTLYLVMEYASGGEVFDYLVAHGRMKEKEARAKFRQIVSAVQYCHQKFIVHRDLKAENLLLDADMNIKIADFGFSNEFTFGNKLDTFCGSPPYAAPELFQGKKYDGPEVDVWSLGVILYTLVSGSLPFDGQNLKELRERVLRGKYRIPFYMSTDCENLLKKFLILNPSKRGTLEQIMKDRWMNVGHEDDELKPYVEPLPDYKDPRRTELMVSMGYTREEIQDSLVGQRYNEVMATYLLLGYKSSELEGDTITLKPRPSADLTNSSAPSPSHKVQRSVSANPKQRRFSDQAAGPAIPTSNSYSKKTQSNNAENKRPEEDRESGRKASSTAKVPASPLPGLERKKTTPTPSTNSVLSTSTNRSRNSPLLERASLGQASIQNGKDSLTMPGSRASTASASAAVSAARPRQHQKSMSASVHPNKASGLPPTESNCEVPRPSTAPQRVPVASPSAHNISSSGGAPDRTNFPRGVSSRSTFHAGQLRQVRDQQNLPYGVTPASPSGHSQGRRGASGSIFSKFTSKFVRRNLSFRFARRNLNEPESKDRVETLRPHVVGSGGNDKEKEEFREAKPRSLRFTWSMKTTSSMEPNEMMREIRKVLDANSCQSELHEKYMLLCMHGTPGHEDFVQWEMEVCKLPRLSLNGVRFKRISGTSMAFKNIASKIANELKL

[13] = molecular target: Mitogen-activated protein kinase 1 (Homo sapiens) (UniProt P28482); experiment: Residual activity of ERK2 at 1 uM by microplate scintillation counting
[14] = molecular target: T3, Myotonin-protein kinase (Homo sapiens) (UniProt Q09013); experiment: Residual activity of DMPK at 1 uM by microplate scintillation counting
T3 sequence (whole entry): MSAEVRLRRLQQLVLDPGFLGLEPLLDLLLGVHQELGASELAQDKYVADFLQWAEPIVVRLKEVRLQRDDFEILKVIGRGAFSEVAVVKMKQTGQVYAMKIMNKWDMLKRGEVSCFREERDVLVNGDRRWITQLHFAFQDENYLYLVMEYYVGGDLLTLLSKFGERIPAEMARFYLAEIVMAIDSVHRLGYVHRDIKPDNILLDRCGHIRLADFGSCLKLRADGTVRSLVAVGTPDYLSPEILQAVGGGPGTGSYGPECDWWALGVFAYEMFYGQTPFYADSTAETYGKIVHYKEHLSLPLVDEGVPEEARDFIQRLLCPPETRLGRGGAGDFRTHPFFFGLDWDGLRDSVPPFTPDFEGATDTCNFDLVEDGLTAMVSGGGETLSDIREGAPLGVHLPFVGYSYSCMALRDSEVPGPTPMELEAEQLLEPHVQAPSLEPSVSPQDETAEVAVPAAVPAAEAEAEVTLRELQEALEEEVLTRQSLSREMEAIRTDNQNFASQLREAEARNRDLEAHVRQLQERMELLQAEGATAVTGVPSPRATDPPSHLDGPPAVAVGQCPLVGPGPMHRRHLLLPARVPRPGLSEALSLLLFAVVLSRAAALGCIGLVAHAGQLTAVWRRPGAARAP

## COc1cc2c(Oc3ccc(-c4nc5ccccc5s4)cc3)ncnc2cc1OCCCN1CCN(C)CC1
[1]
  residual activity: 6%
[2]
  residual activity: 24%
[3]
  residual activity: 97%
[4]
  residual activity: 99%
[5]
  residual activity: 21%
[6]
  residual activity: 113%
[7]
  residual activity: 85%
[8]
  residual activity: 85%
[9]
  residual activity: 86%
[10]
  residual activity: 101%
[11]
  residual activity: 103%
[12]
  residual activity: 67%
[13]
  residual activity: 91%
[14]
  residual activity: 106%

## COc1cc2c(Oc3ccc(-c4nc5ccccc5s4)cc3F)ncnc2cc1OCCCN1CCN(C)CC1
[1]
  residual activity: 5%
[2]
  residual activity: 15%
[3]
  residual activity: 110%
[4]
  residual activity: 94%
[5]
  residual activity: 33%
[6]
  residual activity: 98%
[7]
  residual activity: 95%
[8]
  residual activity: 98%
[9]
  residual activity: 94%
[10]
  residual activity: 105%
[11]
  residual activity: 104%
[12]
  residual activity: 60%
[13]
  residual activity: 98%
[14]
  residual activity: 121%

## COc1cc2c(Oc3ccc(-c4nc5ccccc5s4)cc3)ncnc2cc1OCCCN1CCCC1
[1]
  residual activity: 5%
[2]
  residual activity: 25%
[3]
  residual activity: 109%
[4]
  residual activity: 96%
[5]
  residual activity: 43%
[6]
  residual activity: 92%
[7]
  residual activity: 101%
[8]
  residual activity: 94%
[9]
  residual activity: 86%
[10]
  residual activity: 85%
[11]
  residual activity: 100%
[12]
  residual activity: 72%
[13]
  residual activity: 82%
[14]
  residual activity: 104%
